# Reference: PubChem BioAssay (NCI)
#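 GI50 = concentration required for 50% inhibition of growth. TGI: total growth inhibition.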
# Columns and labels:
# Assay in all cases: NCI tumour cell line growth inhibition, 384-well format
# [1] = test system: SF-268 CNS
# [2] = test system: HT29 colon
# [3] = test system: SF-539 CNS
# [4] = test system: KM12 colon
# [5] = test system: SK-OV-3 ovarian
# [6] = test system: PC-3 prostate
# [7] = test system: M14 melanoma
# [8] = test system: ACHN renal
# [9] = test system: 786-0 renal
# [10] = test system: DU-145 prostate
# [11] = test system: SK-MEL-5 melanoma
# [12] = test system: T-47D breast
# [13] = test system: SK-MEL-2 melanoma
# [14] = test system: SK-MEL-28 melanoma
# [15] = test system: NCI-H23 lung
# [16] = test system: NCI-H226 lung
# [17] = test system: SNB-75 CNS
# [18] = test system: OVCAR-8 ovarian
# [19] = test system: MCF7 breast
# [20] = test system: SR leukemia
# [21] = test system: UACC-257 melanoma
# [22] = test system: COLO 205 colon
# [23] = test system: HCT-15 colon
# [24] = test system: K-562 leukemia
# [25] = test system: EKVX NSCLC
# [26] = test system: CAKI-1 renal
# [27] = test system: NCI-H322M lung
# [28] = test system: SW-620 colon
# [29] = test system: OVCAR-4 ovarian
# [30] = test system: NCI-H522 lung
# [31] = test system: NCI-H460 NSCLC
# [32] = test system: BT-549 breast
# [33] = test system: HCT-116 colon
# [34] = test system: HOP-92 NSCLC
# [35] = test system: MALME-3M melanoma
# [36] = test system: SN12C renal
# [37] = test system: MOLT-4 leukemia
# [38] = test system: RXF 393 renal
# [39] = test system: OVCAR-3 ovarian
# [40] = test system: TK-10 renal
# [41] = test system: A498 renal
# [42] = test system: UACC-62 melanoma
# [43] = test system: A549 NSCLC
# [44] = test system: HL-60(TB) leukemia
# [45] = test system: HOP-62 NSCLC
# [46] = test system: OVCAR-5 ovarian
# [47] = test system: U251 glioblastoma
# [48] = test system: SF-295 CNS
# [49] = test system: HS 578T breast
# [50] = test system: MDA-MB-468 breast
# [51] = test system: IGROV1 ovarian
# [52] = test system: MDA-MB-435 melanoma
# [53] = test system: UO-31 renal
# [54] = test system: MDA-MB-231 breast
# [55] = test system: SNB-19 CNS
smiles,measurement,setting,value
C[C@@H](N)COc1ccc(-c2cnc3ccc(N[C@H](C)c4cccc(F)c4)nn23)cc1,GI50,[1],1590 nM
same,TGI,[1],2960 nM
same,GI50,[2],1300 nM
same,TGI,[2],2590 nM
same,GI50,[3],1420 nM
same,TGI,[3],2740 nM
same,GI50,[4],1600 nM
same,TGI,[4],3000 nM
same,GI50,[5],1470 nM
same,TGI,[5],2850 nM
same,GI50,[6],1460 nM
same,TGI,[6],2910 nM
same,GI50,[7],1730 nM
same,TGI,[7],3110 nM
same,GI50,[8],1570 nM
same,TGI,[8],2940 nM
same,GI50,[9],1550 nM
same,TGI,[9],2900 nM
same,GI50,[10],1530 nM
same,TGI,[10],2960 nM
same,GI50,[11],1030 nM
same,TGI,[11],2220 nM
same,GI50,[12],1350 nM
same,TGI,[12],2660 nM
same,GI50,[13],1270 nM
same,TGI,[13],2540 nM
same,GI50,[14],1630 nM
same,TGI,[14],3010 nM
same,GI50,[15],1540 nM
same,TGI,[15],3150 nM
same,GI50,[16],1430 nM
same,TGI,[16],2830 nM
same,GI50,[17],1590 nM
same,TGI,[17],2960 nM
same,GI50,[18],1600 nM
same,TGI,[18],2970 nM
same,GI50,[19],1140 nM
same,TGI,[19],2370 nM
same,GI50,[20],34.5 nM
same,TGI,[20],125 nM
same,GI50,[21],1380 nM
same,TGI,[21],2690 nM
same,GI50,[22],1620 nM
same,TGI,[22],3010 nM
same,GI50,[23],1630 nM
same,TGI,[23],3040 nM
same,GI50,[24],1110 nM
same,TGI,[24],2360 nM
same,GI50,[25],1020 nM
same,TGI,[25],2220 nM
same,GI50,[26],1680 nM
same,TGI,[26],3050 nM
same,GI50,[27],2180 nM
same,TGI,[27],4100 nM
same,GI50,[28],1430 nM
same,TGI,[28],2780 nM
same,GI50,[29],1490 nM
same,TGI,[29],3240 nM
same,GI50,[30],1160 nM
same,TGI,[30],2390 nM
same,TGI,[31],1440 nM
same,GI50,[32],1370 nM
same,TGI,[32],2660 nM
same,GI50,[33],1490 nM
same,TGI,[33],2860 nM
same,GI50,[34],1510 nM
same,TGI,[34],2850 nM
same,GI50,[35],1680 nM
same,TGI,[35],3060 nM
same,GI50,[36],1560 nM
same,TGI,[36],2910 nM
same,GI50,[37],1130 nM
same,TGI,[37],2350 nM
same,GI50,[38],1170 nM
same,TGI,[38],2390 nM
same,GI50,[39],1620 nM
same,TGI,[39],3160 nM
same,GI50,[40],1520 nM
same,TGI,[40],2900 nM
same,GI50,[41],1590 nM
same,TGI,[41],2960 nM
same,GI50,[42],1720 nM
same,TGI,[42],3100 nM
same,GI50,[43],1560 nM
same,TGI,[43],2940 nM
same,GI50,[44],1070 nM
same,TGI,[44],2270 nM
same,GI50,[45],1730 nM
same,TGI,[45],3160 nM
same,GI50,[46],1250 nM
same,TGI,[46],2610 nM
same,GI50,[47],1600 nM
same,TGI,[47],2960 nM
same,GI50,[48],1640 nM
same,TGI,[48],3020 nM
same,GI50,[49],1470 nM
same,TGI,[49],2800 nM
same,GI50,[50],1000 nM
same,TGI,[50],2170 nM
same,GI50,[51],1620 nM
same,TGI,[51],3050 nM
same,GI50,[52],1440 nM
same,TGI,[52],2760 nM
same,GI50,[53],1790 nM
same,TGI,[53],3190 nM
same,GI50,[54],1420 nM
same,TGI,[54],2760 nM
same,GI50,[55],2060 nM
same,TGI,[55],4040 nM
